Measurements: the OPERA property sets (Mansouri et al. 2018)

conditions: not given

Structure (SMILES) | boiling point [°C] | log10 vapour pressure (mmHg) | melting point [°C] | ready biodegradability | log10 biodegradation half-life (days) | log10 Koa | log10 Koc (L/kg) | log10 Henry constant (atm·m³/mol)
c1ccc(-c2ccccc2-c2ccccc2)cc1 | 332 | -3.6 | 56.2 | – | – | – | – | –
Cc1ccc(CCl)cc1 | 201 | -0.527 | – | – | – | – | – | –
CC=CC#N | 120 | 1.5 | – | – | – | – | – | –
C=Cc1ccc(Cl)cc1 | 192 | -0.0885 | 15.9 | not readily biodegradable | – | – | – | –
CC(C)CC(=O)C=Cc1ccccc1 | – | – | 43 | – | – | – | – | –
Cc1c(Cl)cccc1[N+](=O)[O-] | 238 | – | 37.8 | – | – | – | – | –
CCCCCCC(C)C | 143 | 0.793 | -80.3 | – | 0.699 | – | – | –
CCCCCCCCCCCCCCCC(=O)OC[C@@H](O)[C@H]1OC[C@H](O)[C@H]1O | – | – | – | readily biodegradable | – | – | – | –
O=C(c1ccccc1)C(O)c1ccccc1 (stereo not given) | – | – | – | readily biodegradable | – | – | – | –
Cc1ccc(C(=O)c2csc(S(N)(=O)=O)c2)cc1 | – | – | 176 | – | – | – | – | –
CC(=O)OCC(=O)[C@@]12N=C(C)O[C@@H]1C[C@H]1[C@@H]3CCC4=CC(=O)C=C[C@]4(C)[C@H]3[C@@H](O)C[C@@]12C | – | – | 256 | – | – | – | – | –
CC(C)=CC(=O)Cl | 146 | – | – | – | – | – | – | –
Cc1cc(C(C)(C)C)c(O)c(C)c1CC1=NCCN1 | – | – | 182 | – | – | – | – | –
CCCC(CC)CC(C)C (stereo not given) | 158 | – | – | – | – | – | – | –
CCCCC(C)=O | 128 | 1.06 | -55.5 | not readily biodegradable | – | 3.68 | – | –
NNC(N)=S | – | – | 183 | not readily biodegradable | – | – | – | –
COc1cc(NC(=O)C(N=Nc2ccc(-c3ccc(N=NC(C(C)=O)C(=O)Nc4cc(OC)c(Cl)cc4OC)c(Cl)c3)cc2Cl)C(C)=O)c(OC)cc1Cl (stereo not given) | – | – | – | not readily biodegradable | – | – | – | –
CCCCCC(O)CCCCC | 228 | – | 25 | – | – | – | – | –
Oc1ccc2c(c1)CCCC2 | 276 | – | 57 | – | – | – | – | –
CCC(C)N (stereo not given) | 62.8 | 2.25 | -104 | readily biodegradable | – | – | – | –
CCOC(=O)/C=C/C(=O)OCC | – | – | – | readily biodegradable | – | – | – | –
CCCCCCCCCCC(=O)OCC | – | -2.37 | -15 | – | – | – | – | –
O=C1c2ccccc2C(=O)c2ccccc21 | 377 | -6.94 | 286 | readily biodegradable | – | – | 3.57 | –
O=P([O-])([O-])O[C@@H]1[C@@H](O)[C@H](O)[C@@H](O)[C@H](O)[C@@H]1O | – | – | 195 | – | – | – | – | –
CCc1c(C)c[nH]c1C | 199 | – | 0 | – | – | – | – | –
COc1nccnc1N(C(C)=O)S(=O)(=O)c1ccc(N)cc1 | – | – | 199 | – | – | – | – | –

Structure (SMILES) | boiling point [°C] | log10 vapour pressure (mmHg) | melting point [°C] | ready biodegradability | log10 biodegradation half-life (days) | log10 Koa | log10 Koc (L/kg) | log10 Henry constant (atm·m³/mol)
Cc1ccc(N)c(C)c1 | 214 | -0.876 | -14.3 | not readily biodegradable | – | – | – | –
O=C1OC(OC2OC(=O)C(Cl)=C2Cl)C(Cl)=C1Cl (stereo not given) | – | – | 142 | – | – | – | – | –
Cc1cc(N)ccc1Br | 240 | – | 81 | – | – | – | 2.26 | –
CC(=O)NC(N)=S | – | – | 165 | – | – | – | – | –
Fc1cc(F)nc(F)n1 | 98 | – | – | – | – | – | – | –
CC1=CCCCCC1 | 136 | – | – | – | – | – | – | –
Oc1cccc(F)c1 | 178 | – | 13.7 | – | – | – | – | –
c1ccc(-c2cccc(-c3ccccc3)c2)cc1 | 363 | -4.76 | 87 | – | – | – | – | –
CC(C)C(NC(N)=O)NC(N)=O | – | – | – | readily biodegradable | – | – | – | –
COc1ccccc1C=O | 244 | – | 37.5 | – | – | – | – | –
CCC(Br)(Br)CBr | 214 | – | – | – | – | – | – | –
Cc1ccc(C)o1 | 93.5 | – | -62.8 | – | – | – | – | –
CC(C)C(=O)c1ccccc1 | 220 | – | -1.3 | – | – | – | – | –
ClC1OCCOC1Cl (stereo not given) | – | – | 30 | – | – | – | – | –
Cc1cccc(C)c1N | 215 | -0.886 | 11.2 | not readily biodegradable | – | – | – | –
CC(Br)C(C)Br (stereo not given) | 161 | 0.58 | -24 | – | – | – | – | –
C=CCc1ccccc1 | 156 | – | -40 | – | – | – | – | –
CCCC(C)=C(CC)C(C)=O | 190 | – | – | – | – | – | – | –
CCCCCCCCCc1ccc(O)cc1 | – | -3.09 | 42 | – | – | – | 3.84 | –
OCc1ccccc1C(c1ccc(O)cc1)c1ccc(O)cc1 | – | – | 202 | – | – | – | – | –
COc1ccc(OC)c(C=O)c1 | 270 | – | 52 | – | – | – | – | –
Clc1ccc2c(Cl)c(Cl)ccc2c1 | – | – | – | – | – | 7.5 | – | –
c1ccc2cc3c(cc2c1)-c1cccc2cccc-3c12 | 480 | -9.02 | 217 | not readily biodegradable | 2.55 | – | 4.34 | -6.23
CCCCc1cc2ccccc2c(OCCN(C)C)n1 | – | – | 146 | – | – | – | – | –
CCN(CC)C(=S)SC(=S)N(CC)CC | – | – | 31 | – | – | – | – | –

same assay, conditions: fish

Structure (SMILES) | log10 BCF | log10 biotransformation half-life (days)
ClC1=C(Cl)C2(Cl)C3C(Cl)C(Cl)CC3C1(Cl)C2(Cl)Cl (stereo not given) | 4.35 | 2.26
c1ccc2c(c1)c1ccccc1c1ccccc21 | – | -0.08
C=Cc1ccc(C=C)cc1 | 2.48 | 0.5
CC(C)OC(=O)C(C(=O)OC(C)C)=C1SCCS1 | 1.57 | –
CCOC(=O)C(SP(=S)(OC)OC)c1ccccc1 (stereo not given) | 1.69 | -0.75
CNc1ccccc1C | 0.95 | -0.74
COc1c(Cl)c(Cl)cc(Cl)c1Cl | 3.69 | –
Oc1cc(Cl)c(Cl)cc1Cl | 2.73 | –
ClC=C(Cl)Cl | 1.2 | -0.41
Nc1cc(Cl)c(Cl)c(Cl)c1Cl | 2.21 | –
O=P(OC(CCl)CCl)(OC(CCl)CCl)OC(CCl)CCl | 1.08 | -0.52
N#Cc1ccc(C#N)cc1 | 0.3 | -0.81
Cc1c(Cl)c(Cl)c(Cl)c(Cl)c1Cl | 3.83 | –
c1ccc(-c2ccccc2-c2ccccc2)cc1 | 3.48 | 0.86
Cc1c(Cl)cccc1[N+](=O)[O-] | 1.99 | –
CCCCCCCCCc1ccc(O)cc1 | 2.58 | -0.23
c1ccc2cc3c(cc2c1)-c1cccc2cccc-3c12 | – | -0.06
